Data: patent US6358885B1, “Substituted phenylheterocyclic herbicides” (Mississippi State University, priority 1992, dated 2002)

Experiments:
[1] = system: barnyardgrass; assay: Test H postemergence greenhouse plant response rating 0 to 10; assay type: in vivo, Echinochloa crus-galli; settings: 0 to 10 scale (0 no effect, 10 complete control)
Source text: (§1) Seeds of barnyardgrass (Echinochloa crus-galli), black nightshade (Solanum ptycanthum dunal), cocklebur (Xanthium pensylvanicum), common ragweed (Ambrosia elatior), corn (Zea mays), cotton (Gossypium hirsutam), crabgrass (Digitaria spp.), giant foxtail (Setaria faberii), jimsonweed (Datura stramonium), johnson grass (Sorghum halepense), morningglory (Ipomoea spp.), smartweed (Polygonum pensylvanicum), soybean (Glycine max), velvetleaf (Abutilon theophrasti) and purple nutsedge (Cyperus rotundus) tubers were planted into a silt loam soil. These crops and weeds were grown in the greenhouse until the plants ranged in height from two to eighteen cm (one to four leaf stage), then treated postemergence with the test chemicals dissolved in a non-phytotoxic solvent. Pots receiving these postemergence treatments were placed in the greenhouse and maintained according to routine greenhouse procedures. Treated plants and untreated controls were maintained in the greenhouse approximately 21 days after application of the test compound. Visual evaluations of plant injury responses were then recorded.

[2] = system: black nightshade; assay: as above; assay type: in vivo, Solanum ptycanthum dunal; settings: 0 to 10 scale (0 no effect, 10 complete control)
Source text: as §1

[3] = system: cocklebur; assay: as above; assay type: in vivo, Xanthium pensylvanicum; settings: 0 to 10 scale (0 no effect, 10 complete control)
Source text: as §1

[4] = system: common ragweed; assay: as above; assay type: in vivo, Ambrosia elatior; settings: 0 to 10 scale (0 no effect, 10 complete control)
Source text: as §1

[5] = system: corn; assay: as above; assay type: in vivo, Zea mays; settings: 0 to 10 scale (0 no effect, 10 complete control)
Source text: as §1

[6] = system: cotton; assay: as above; assay type: in vivo, Gossypium hirsutam; settings: 0 to 10 scale (0 no effect, 10 complete control)
Source text: as §1

[7] = system: crabgrass; assay: as above; assay type: in vivo, Digitaria spp.; settings: 0 to 10 scale (0 no effect, 10 complete control)
Source text: as §1

[8] = system: giant foxtail; assay: as above; assay type: in vivo, Setaria faberii; settings: 0 to 10 scale (0 no effect, 10 complete control)
Source text: as §1

[9] = system: jimsonweed; assay: as above; assay type: in vivo, Datura stramonium; settings: 0 to 10 scale (0 no effect, 10 complete control)
Source text: as §1

[10] = system: johnson grass; assay: as above; assay type: in vivo, Sorghum halepense; settings: 0 to 10 scale (0 no effect, 10 complete control)
Source text: as §1

[11] = system: morningglory; assay: as above; assay type: in vivo, Ipomoea spp.; settings: 0 to 10 scale (0 no effect, 10 complete control)
Source text: as §1

[12] = system: smartweed; assay: as above; assay type: in vivo, Polygonum pensylvanicum; settings: 0 to 10 scale (0 no effect, 10 complete control)
Source text: as §1

[13] = system: soybean; assay: as above; assay type: in vivo, Glycine max; settings: 0 to 10 scale (0 no effect, 10 complete control)
Source text: as §1

[14] = system: velvetleaf; assay: as above; assay type: in vivo, Abutilon theophrasti; settings: 0 to 10 scale (0 no effect, 10 complete control)
Source text: as §1

[15] = system: purple nutsedge; assay: as above; assay type: in vivo, Cyperus rotundus; settings: 0 to 10 scale (0 no effect, 10 complete control)
Source text: as §1

[16] = system: barnyardgrass; assay: Test A preemergence/postemergence greenhouse plant response rating 0 to 10; assay type: in vivo, Echinochchloa crus-galli; settings: 0 to 10 scale, 0 is no effect, 10 is complete control
Experimental: (§2) Seeds of barnyardgrass (Echinochchloa crus-galli), cheatgrass (Bromus secalinus), cocklebur (Xanthium pensylvanicum), crabgrass (Digitaria spp.), giant foxtail (Setaria faberii), morningglory (Ipomoea spp.), sorghum (Sorghum bicolor), velvetleaf (Abutilon theophrasti), and wild oat (Avena fatua) were planted into a sandy loam soil and treated preemergence with test chemicals dissolved in a non-phytotoxic solvent. At the same time, these crop and weed species were also treated postemergence with test chemicals. Plants ranged in height from two to eighteen cm and were in the two to three leaf stage for the postemergence treatment. Treated plants and untreated controls were maintained in a greenhouse for approximately eleven days, after which all treated plants were compared to untreated controls and visually evaluated for injury. Plant response ratings, summarized in Table A, are based on a 0 to 10 scale where 0 is no effect and 10 is complete control. A dash (-) response means no test results.

[17] = system: cheatgrass; assay: as above; assay type: in vivo, Bromus secalinus; settings: 0 to 10 scale, 0 is no effect, 10 is complete control
Experimental: as §2

[18] = system: cocklebur; assay: as above; assay type: in vivo, Xanthium pensylvanicum; settings: 0 to 10 scale, 0 is no effect, 10 is complete control
Experimental: as §2

[19] = system: crabgrass; assay: as above; assay type: in vivo, Digitaria spp.; settings: 0 to 10 scale, 0 is no effect, 10 is complete control
Experimental: as §2

[20] = system: giant foxtail; assay: as above; assay type: in vivo, Setaria faberii; settings: 0 to 10 scale, 0 is no effect, 10 is complete control
Experimental: as §2

[21] = system: morningglory; assay: as above; assay type: in vivo, Ipomoea spp.; settings: 0 to 10 scale, 0 is no effect, 10 is complete control
Experimental: as §2

[22] = system: sorghum; assay: as above; assay type: in vivo, Sorghum bicolor; settings: 0 to 10 scale, 0 is no effect, 10 is complete control
Experimental: as §2

[23] = system: velvetleaf; assay: as above; assay type: in vivo, Abutilon theophrasti; settings: 0 to 10 scale, 0 is no effect, 10 is complete control
Experimental: as §2

[24] = system: wild oat; assay: as above; assay type: in vivo, Avena fatua; settings: 0 to 10 scale, 0 is no effect, 10 is complete control
Experimental: as §2

C#CCN1C(=O)COc2cc(F)c(-c3nn4c(c3Cl)CCCC4)cc21 [Compound 34]
Barnyardgrass plant response rating ([1]; Rate 4 g/ha): 0 | Barnyardgrass plant response rating ([1]; Rate 8 g/ha): 0 | Barnyardgrass plant response rating ([1]; Rate 16 g/ha): 0 | Black Nightshade plant response rating ([2]; Rate 4 g/ha): 5 | Black Nightshade plant response rating ([2]; Rate 8 g/ha): 10 | Black Nightshade plant response rating ([2]; Rate 16 g/ha): 10 | Cocklebur plant response rating ([3]; Rate 4 g/ha): 5 | Cocklebur plant response rating ([3]; Rate 8 g/ha): 10 | Cocklebur plant response rating ([3]; Rate 16 g/ha): 10 | Common Ragweed plant response rating ([4]; Rate 4 g/ha): 0 | Common Ragweed plant response rating ([4]; Rate 8 g/ha): 1 | Common Ragweed plant response rating ([4]; Rate 16 g/ha): 2 | Corn G4689A plant response rating ([5]; Rate 4 g/ha): 1 | Corn G4689A plant response rating ([5]; Rate 8 g/ha): 1 | Corn G4689A plant response rating ([5]; Rate 16 g/ha): 2 | Cotton plant response rating ([6]; Rate 4 g/ha): 10 | Cotton plant response rating ([6]; Rate 8 g/ha): 10 | Cotton plant response rating ([6]; Rate 16 g/ha): 10 | Crabgrass plant response rating ([7]; Rate 4 g/ha): 0 | Crabgrass plant response rating ([7]; Rate 8 g/ha): 0 | Crabgrass plant response rating ([7]; Rate 16 g/ha): 0 | Giant Foxtail plant response rating ([8]; Rate 4 g/ha): 0 | Giant Foxtail plant response rating ([8]; Rate 8 g/ha): 0 | Giant Foxtail plant response rating ([8]; Rate 16 g/ha): 0 | Jimson weed plant response rating ([9]; Rate 4 g/ha): 10 | Jimson weed plant response rating ([9]; Rate 8 g/ha): 10 | Jimson weed plant response rating ([9]; Rate 16 g/ha): 10 | Johnson Grass plant response rating ([10]; Rate 4 g/ha): 0 | Johnson Grass plant response rating ([10]; Rate 8 g/ha): 0 | Johnson Grass plant response rating ([10]; Rate 16 g/ha): 0 | Morningglory plant response rating ([11]; Rate 4 g/ha): 10 | Morningglory plant response rating ([11]; Rate 8 g/ha): 10 | Morningglory plant response rating ([11]; Rate 16 g/ha): 10 | Smartweed plant response rating ([12]; Rate 4 g/ha): 5 | Smartweed plant response rating ([12]; Rate 8 g/ha): 7 | Smartweed plant response rating ([12]; Rate 16 g/ha): 8 | Soybean plant response rating ([13]; Rate 4 g/ha): 7 | Soybean plant response rating ([13]; Rate 8 g/ha): 7 | Soybean plant response rating ([13]; Rate 16 g/ha): 10 | Velvetleaf plant response rating ([14]; Rate 4 g/ha): 10 | Velvetleaf plant response rating ([14]; Rate 8 g/ha): 10 | Velvetleaf plant response rating ([14]; Rate 16 g/ha): 10 | Nutsedge plant response rating ([15]; Rate 4 g/ha): 0 | Nutsedge plant response rating ([15]; Rate 8 g/ha): 0 | Nutsedge plant response rating ([15]; Rate 16 g/ha): 0

Clc1ccc(-c2nc3n(c2Cl)CCC=C3)c(Cl)c1 [Compound 1]
Plant response rating, Barnyardgrass ([16]; POSTEMERGENCE, Rate 1000 g/ha): 5 | Plant response rating, Barnyardgrass ([16]; PREEMERGENCE, Rate 1000 g/ha): 2 | Plant response rating, Cheatgrass ([17]; POSTEMERGENCE, Rate 1000 g/ha): 4 | Plant response rating, Cheatgrass ([17]; PREEMERGENCE, Rate 1000 g/ha): 0 | Plant response rating, Cocklebur ([18]; POSTEMERGENCE, Rate 1000 g/ha): 8 | Plant response rating, Cocklebur ([18]; PREEMERGENCE, Rate 1000 g/ha): 0 | Plant response rating, Crabgrass ([19]; POSTEMERGENCE, Rate 1000 g/ha): 5 | Plant response rating, Crabgrass ([19]; PREEMERGENCE, Rate 1000 g/ha): 0 | Plant response rating, Giant foxtail ([20]; POSTEMERGENCE, Rate 1000 g/ha): 4 | Plant response rating, Giant foxtail ([20]; PREEMERGENCE, Rate 1000 g/ha): 5 | Plant response rating, Morningglory ([21]; POSTEMERGENCE, Rate 1000 g/ha): 10 | Plant response rating, Morningglory ([21]; PREEMERGENCE, Rate 1000 g/ha): 0 | Plant response rating, Sorghum ([22]; POSTEMERGENCE, Rate 1000 g/ha): 4 | Plant response rating, Sorghum ([22]; PREEMERGENCE, Rate 1000 g/ha): 0 | Plant response rating, Velvetleaf ([23]; POSTEMERGENCE, Rate 1000 g/ha): 10 | Plant response rating, Velvetleaf ([23]; PREEMERGENCE, Rate 1000 g/ha): 8 | Plant response rating, Wild oats ([24]; POSTEMERGENCE, Rate 1000 g/ha): 3 | Plant response rating, Wild oats ([24]; PREEMERGENCE, Rate 1000 g/ha): 0 | melting point: 104 to 105 °C

Clc1ccc(-c2nc3n(c2Br)CCCC3)c(Cl)c1 [Compound 2]
Plant response rating, Barnyardgrass ([16]; POSTEMERGENCE, Rate 2000 g/ha): 9 | Plant response rating, Barnyardgrass ([16]; PREEMERGENCE, Rate 2000 g/ha): 9 | Plant response rating, Cheatgrass ([17]; POSTEMERGENCE, Rate 2000 g/ha): 7 | Plant response rating, Cheatgrass ([17]; PREEMERGENCE, Rate 2000 g/ha): 6 | Plant response rating, Cocklebur ([18]; POSTEMERGENCE, Rate 2000 g/ha): 10 | Plant response rating, Cocklebur ([18]; PREEMERGENCE, Rate 2000 g/ha): 0 | Plant response rating, Crabgrass ([19]; POSTEMERGENCE, Rate 2000 g/ha): 7 | Plant response rating, Crabgrass ([19]; PREEMERGENCE, Rate 2000 g/ha): 8 | Plant response rating, Giant foxtail ([20]; POSTEMERGENCE, Rate 2000 g/ha): 9 | Plant response rating, Giant foxtail ([20]; PREEMERGENCE, Rate 2000 g/ha): 10 | Plant response rating, Morningglory ([21]; POSTEMERGENCE, Rate 2000 g/ha): 10 | Plant response rating, Morningglory ([21]; PREEMERGENCE, Rate 2000 g/ha): 2 | Plant response rating, Sorghum ([22]; POSTEMERGENCE, Rate 2000 g/ha): 6 | Plant response rating, Sorghum ([22]; PREEMERGENCE, Rate 2000 g/ha): 8 | Plant response rating, Velvetleaf ([23]; POSTEMERGENCE, Rate 2000 g/ha): 10 | Plant response rating, Velvetleaf ([23]; PREEMERGENCE, Rate 2000 g/ha): 10 | Plant response rating, Wild oats ([24]; POSTEMERGENCE, Rate 2000 g/ha): 5 | Plant response rating, Wild oats ([24]; PREEMERGENCE, Rate 2000 g/ha): 5
